Measurements as given in patent US20090246145A1, “Imaging Correlates of Neurogenesis With MRI” (priority 2005, published 2009).
Where two headings read alike, the source gives them in different places.

Legend:
[1] = in vivo
Source text: Three scout scans are first acquired to position the subsequent T2 weighted images along the standard anatomical orientations in a reproducible manner. T2 weighted axial images are acquired with multislice fast spin echo (FSE) sequence using TR/TEeff=[…]/80 ms, rapid acquisition with relaxation enhancement (RARE) factor=16, FOV=26 mm, acquisition matrix=256×256, slice thickness 0.6 mm, slice gap=0.1 mm and NEX 28. The in-plane resolution is 100 μm. This sequence is repeated 4 times, for a total imaging time of 60 minutes. The first 15 minutes correspond to pre-gadolinium image, after this time period a delay of 1-2 minutes precede the ip gadolinium injection while the mouse is being imaged. The injection lasts 30 seconds. All images are acquired utilizing the same dynamic range, so there is no risk of rescale.
An intravascular contrast agent is required to generate a CBV map of the brain. Different contrast agents have been used for CBV mapping in rodents. Most studies to date have relied on intravenous injections for contrast delivery. Because IV delivery is often problematic in rodents, associated with frequent morbidity and even occasional mortality, it is not ideally suited for longitudinal studies imaging rodents repeatedly over time. […]

[2] = gas anesthesia during MRI, cited from earlier work
[3] = tested on: adult hippocampal neural progenitor cells; conditions: in vivo; mediated at least in part by NeuroD (Hao 2004; Hsieh 2004); cited from earlier work

Structure (SMILES): CNC(=O)CN(CCN(CCN(CC(=O)[O-])CC(=O)NC)CC(=O)[O-])CC(=O)[O-].[Gd+3] [gadolinium, gadodiamide]
- IP dose above which gadolinium has toxic effects (mainly transient unsteady gait, possibly vertigo) [1]: Above 10 mMol

Structure (SMILES): FC(F)OC(Cl)C(F)(F)F (stereo not shown) [isoflurane]
- Cerebral hemodynamic change produced by anesthetic [2]: none or minimal cerebral hemodynamic changes
- Cerebral hemodynamic change produced by anesthetic ([2]; listed as Isofluorane): minimal cerebral hemodynamic change

Structure (SMILES): CCCC(CCC)C(=O)O [VPA, 2-propylpentanoic acid]
- Induction of adult hippocampal neural progenitor cells to differentiate into neurons [3]: induce adult hippocampal neural progenitor cells to differentiate predominantly into neurons
